Data as given in patent US10702506B2, “Small molecule inhibitors of pendrin ion exchange and pharmaceutical compositions” (THE REGENTS OF THE UNIVERSITY OF CALIFORNIA, priority 2016, dated 2020).
pIC50: −log10 of the molar value.

Key:
[1] = tested on: chronically furosemide-treated mice; assay: Chronic furosemide treatment model in mice; format: in vivo; conditions: 10 mg/kg after 8 days furosemide 20 mg/kg twice a day, 3 h urine
Protocol: Because chronic loop diuretic treatment upregulates renal pendrin expression, which might potentiate the diuretic efficacy of pendrin inhibition, the action of PDSinh-C01 in a chronic furosemide treatment model.
In chronic studies, mice were injected with 20 mg/kg furosemide (ip) twice a day for 8 days and then administered PDSinh-C01 (10 mg/kg) or vehicle at the time of the final furosemide dose. Urine was collected for 3 h as described above.
After 8 days of furosemide treatment, PDSinh-C01 further potentiated the furosemide effect.

[2] = biological target: T1, murine pendrin (Mus musculus, UniProt Q9R155); assay: BCECF intracellular pH assay of Cl−/HCO3− exchange in FRT cells expressing murine pendrin; format: cell-based
T1 construct: expressed in transfected cells
T1 sequence (Q9R155 1-780): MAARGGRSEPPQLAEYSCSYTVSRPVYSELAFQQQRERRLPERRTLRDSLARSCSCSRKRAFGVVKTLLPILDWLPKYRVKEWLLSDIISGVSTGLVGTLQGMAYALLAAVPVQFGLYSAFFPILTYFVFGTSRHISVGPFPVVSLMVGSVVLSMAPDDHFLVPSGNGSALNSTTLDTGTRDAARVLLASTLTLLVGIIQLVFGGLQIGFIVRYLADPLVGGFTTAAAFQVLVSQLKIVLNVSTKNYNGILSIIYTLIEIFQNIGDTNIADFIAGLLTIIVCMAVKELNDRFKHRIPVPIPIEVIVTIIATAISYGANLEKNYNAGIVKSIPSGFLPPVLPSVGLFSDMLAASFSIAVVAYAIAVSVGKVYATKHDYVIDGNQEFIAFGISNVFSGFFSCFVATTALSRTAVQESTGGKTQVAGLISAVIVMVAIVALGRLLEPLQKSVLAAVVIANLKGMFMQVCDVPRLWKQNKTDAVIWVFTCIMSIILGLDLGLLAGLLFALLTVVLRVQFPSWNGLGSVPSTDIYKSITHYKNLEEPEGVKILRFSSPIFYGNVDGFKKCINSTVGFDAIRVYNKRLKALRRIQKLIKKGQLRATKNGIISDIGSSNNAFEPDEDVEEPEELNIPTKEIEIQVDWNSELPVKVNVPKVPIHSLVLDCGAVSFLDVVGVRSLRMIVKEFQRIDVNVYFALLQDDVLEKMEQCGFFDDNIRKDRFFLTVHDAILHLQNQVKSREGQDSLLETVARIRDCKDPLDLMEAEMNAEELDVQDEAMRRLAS
Protocol: Pendrin-mediated exchange of Cl^− with SCN^−, I^− or NO3^− was measured from the kinetics of YFP fluorescence quenching in a BMG FLUOstar Omega platereader. Pendrin/YFP-expressing FRT cells were washed in PBS and transport measured following a 70-mM gradient of SCN^−, I^− or NO3^−. Pendrin-mediated Cl^−/HCO3^− exchange was measured from the kinetics of cytoplasmic pH (pHi) using BCECF-AM (Invitrogen). Pendrin-expressing FRT cells in HCO3^−-containing buffer (in mM: 120 NaCl, 5 KCl, 1 CaCl2), 1 MgSO4, 10 glucose, 5 Hepes, 25 NaHCO3^−; pH 7.4; 95% O2/5% CO2 equilibrated) were exposed to a Cl^−-free buffer (gluconate replacing Cl^−) to drive Cl^− efflux and HCO3^− influx.
Pendrin-mediated Cl^−/HCO3^− exchange was measured from the kinetics of intracellular pH, using BCECF fluorescence as a cytoplasmic pH sensor, following extracellular addition of gluconate in HCO3^−/CO2-containing buffer to drive Cl-efflux, HCO3^− influx, and consequent cytoplasmic alkalinization (FIG. 7D). […] YFP-based fluorescence quenching assays in COS-7 cells were established to measure AE1 (Slc4a1), CLD (Slc26a3) and NCC (Slc12a3) activities. […] A YFP-V163S fluorescence quenching assay in FRT cells was used to measure NKCC1 activity in which cells equilibrated gluconate-substituted PBS buffer were exposed to a Cl^−-containing solution containing 75 mM Na^+ and 75 mM K^+.

[3] = tested on: HBE and CFBE cell cultures; assay: ASL depth by confocal imaging of rhodamine B-dextran in HBE and CFBE cultures; format: cell-based, human; conditions: 25 μM, 4-6 hours
Protocol: ASL depth was measured in HBE and CFBE cell cultures under basal conditions and with chronic IL-13-treatment. […] Treatment of HBE and CFBE cell cultures with IL-13 produced a significant increase in ASL depth to ˜16 μm. Remarkably, treatment of IL-13-treated HBE and CFBE cell cultures with PDSinh-A01 produced a significant further increase in ASL depth of ˜8 μm (FIG. 6A, right; summary in FIG. 6B). Pendrin inhibition thus causes ASL hydration in IL-13-treated HBE and CFBE cell cultures, providing pharmacological evidence for pendrin as a key regulator of ASL hydration in airway cell cultures exposed to an inflammatory stimulant.
ASL depth was measured by confocal imaging of rhodamine B-dextran fluorescence (20 μl of 0.1 mg/ml in PBS) applied 4-6 h prior to measurement. Scanning confocal microscopy was done using an upright Nikon EZ-C1 confocal microscope equipped with a LUMplan FL N 60×/1.00w objective (Olympus, Waltham, Mass.). […] In some experiments ASL depth was measured after treatment with 25 μM PDSinh-A01 in the culture medium for 4-6 hours. ASL depth was measured using a multi-point histogram method in which each confocal z-stack was fitted to a quadratic function, as described and validated previously.

| pIC50 [2] | SMILES | increase in urine volume [1] [%] | further increase in ASL depth, IL-13-treated cultures ([3]; IL-13-treated) [μm] | effect on ASL depth, basal conditions ([3]; no IL-13) |
| --- | --- | --- | --- | --- |
| ~5.92 | Cc1n[nH]c(-c2cc(S(=O)(=O)NC3CCCc4ccccc43)c(C)s2)c1C (stereo not shown) [PDSinh-C01] | ~60 |  |  |
|  | Cn1nc(COc2cccc(F)c2)c2c1CCN(C(=O)Nc1ccc(Cl)cc1)C2 [PDSinh-A01] |  | ~8 | did not significantly change |
